Test system: β-TrCP1:β-catenin interaction
Type: binding, human
Details: saturating concentrations of glue, TR-FRET

## COc1cc2c(cc1OC)CN(C(=O)c1c(Sc3c(Cl)cccc3Cl)cc(C(F)(F)F)[nH]c1=O)C2 [NRX-252262, 4-((2,6-dichlorophenyl)thio)-3-(5,6-dimethoxyisoindoline-2-carbonyl)-6-(trifluoromethyl)pyridin-2(1H)-one]
  Effect on the β-TrCP1:β-catenin interaction: dramatically enhances the interaction between β-TrCP1 and β-catenin

— publication PMC12167809 (The Journal of Biological Chemistry, 2025)
